Source: patent publication US8952024B2, “Herbicidal pyrimidone derivatives” (E I du Pont de Nemours and Company, priority 2009, dated 2015)

Key:
Type in all cases: in vivo
[1] = tested on: bermudagrass (Cynodon dactylon); test: Test B pre-/postemergence plant response
Summary of the method: (§1)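 Steps: sow seed in loam–sand soil and spray preemergence, or grow plants in peat-based medium to 1–4 leaves (2–18 cm) and spray postemergence; formulation is non-phytotoxic solvent plus surfactant; hold in greenhouse 13–15 days; score visually vs controls, 0 = no effect, 100 = complete control.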

[2] = tested on: blackgrass (Alopecurus myosuroides); test: Test B pre-/postemergence plant response
Summary of the method: as §1

[3] = tested on: cocklebur (Xanthium strumarium); test: Test B pre-/postemergence plant response
Summary of the method: as §1

[4] = tested on: corn (Zea mays); test: Test B pre-/postemergence plant response
Summary of the method: as §1

[5] = tested on: giant foxtail (Setaria faberii); test: Test B pre-/postemergence plant response
Summary of the method: as §1

[6] = tested on: johnsongrass (Sorghum halepense); test: Test B pre-/postemergence plant response
Summary of the method: as §1

[7] = tested on: kochia (Kochia scoparia); test: Test B pre-/postemergence plant response
Summary of the method: as §1

[8] = tested on: morningglory (Ipomoea coccinea); test: Test B pre-/postemergence plant response
Summary of the method: as §1

[9] = tested on: soybean (Glycine max); test: Test B pre-/postemergence plant response
Summary of the method: as §1

[10] = tested on: wild oat (Avena fatua); test: Test B pre-/postemergence plant response
Summary of the method: as §1

[11] = tested on: canarygrass (Phalaris minor); test: Test B postemergence plant response
Summary of the method: (§2)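 Plants grown in peat/vermiculite medium were sprayed postemergence at 2–18 cm height (1- to 4-leaf stage). After 13–15 days in the greenhouse, response was rated visually against untreated controls on a 0–100 scale (0 no effect, 100 complete control).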

[12] = tested on: chickweed (Stellaria media); test: Test B postemergence plant response
Summary of the method: as §2

[13] = tested on: windgrass (Apera spica-venti); test: Test B postemergence plant response
Summary of the method: as §2

[14] = tested on: winter barley (Hordeum vulgare); test: Test B postemergence plant response
Summary of the method: as §2

[15] = 31 g ai/ha, postemergence, scale 0 to 100, 0 is no effect, 100 is complete control
[16] = 62 g ai/ha, postemergence, 0 is no effect, 100 is complete control, 13 to 15 days
[17] = 250 g ai/ha, Preemergence, 0 to 100 scale
[18] = Postemergence, 125 g ai/ha, visual rating after 13 to 15 days, scale 0 (no effect) to 100 (complete control)
[19] = Postemergence, 250 g ai/ha, scale 0 to 100 (0 no effect, 100 complete control)
[20] = Preemergence, 31 g ai/ha, scale 0 to 100 (0 no effect, 100 complete control)
[21] = Preemergence, 62 g ai/ha, scale 0 to 100 (0 no effect, 100 complete control)
[22] = Preemergence, 125 g ai/ha, scale 0 to 100, 0 no effect, 100 complete control

CCCc1ncc(C(=O)C2=C(O)CCCC2=O)c(=O)n1-c1ccccc1C [Compound 73]
Plant response rating, Bermudagrass [1, 15]: 65
Bermudagrass plant response rating (0 to 100 scale) [1, 16]: 80
Plant response rating, Bermudagrass [1, 17]: 100
Plant response rating, Bermudagrass [1, 18]: 90
Plant response rating, Bermudagrass [1, 19]: 90
Plant response rating, Bermudagrass [1, 20]: 50
Plant response rating, Bermudagrass [1, 21]: 98
Plant response rating, Bermudagrass [1, 22]: 98
Plant response rating, Blackgrass [2, 15]: 0
Blackgrass plant response rating (0 to 100 scale) [2, 16]: 10
Plant response rating, Blackgrass [2, 17]: 10
Plant response rating, Blackgrass [2, 18]: 10
Plant response rating, Blackgrass [2, 19]: 30
Plant response rating, Blackgrass [2, 20]: 0
Plant response rating, Blackgrass [2, 21]: 0
Plant response rating, Blackgrass [2, 22]: 0
Plant response rating, Cocklebur [3, 15]: 0
Cocklebur plant response rating (0 to 100 scale) [3, 16]: 45
Plant response rating, Cocklebur [3, 17]: 65
Plant response rating, Cocklebur [3, 18]: 65
Plant response rating, Cocklebur [3, 19]: 80
Plant response rating, Cocklebur [3, 20]: 0
Plant response rating, Cocklebur [3, 21]: 0
Plant response rating, Cocklebur [3, 22]: 60
Plant response rating, Corn [4, 15]: 20
Corn plant response rating (0 to 100 scale) [4, 16]: 80
Plant response rating, Corn [4, 17]: 10
Plant response rating, Corn [4, 18]: 80
Plant response rating, Corn [4, 19]: 85
Plant response rating, Corn [4, 20]: 0
Plant response rating, Corn [4, 21]: 0
Plant response rating, Corn [4, 22]: 0
Plant response rating, Foxtail, Giant [5, 15]: 70
Foxtail, Giant plant response rating (0 to 100 scale) [5, 16]: 75
Plant response rating, Foxtail, Giant [5, 17]: 80
Plant response rating, Foxtail, Giant [5, 18]: 80
Plant response rating, Foxtail, Giant [5, 19]: 90
Plant response rating, Foxtail, Giant [5, 20]: 0
Plant response rating, Foxtail, Giant [5, 21]: 70
Plant response rating, Foxtail, Giant [5, 22]: 75
Plant response rating, Johnsongrass [6, 15]: 10
Johnsongrass plant response rating (0 to 100 scale) [6, 16]: 65
Plant response rating, Johnsongrass [6, 17]: 98
Plant response rating, Johnsongrass [6, 18]: 70
Plant response rating, Johnsongrass [6, 19]: 75
Plant response rating, Johnsongrass [6, 20]: 0
Plant response rating, Johnsongrass [6, 21]: 0
Plant response rating, Johnsongrass [6, 22]: 98
Plant response rating, Kochia [7, 15]: 75
Kochia plant response rating (0 to 100 scale) [7, 16]: 80
Plant response rating, Kochia [7, 17]: 90
Plant response rating, Kochia [7, 18]: 90
Plant response rating, Kochia [7, 19]: 90
Plant response rating, Kochia [7, 20]: 0
Plant response rating, Kochia [7, 22]: 80
Plant response rating, Morningglory [8, 15]: 0
Morningglory plant response rating (0 to 100 scale) [8, 16]: 50
Plant response rating, Morningglory [8, 18]: 75
Plant response rating, Morningglory [8, 19]: 95
Plant response rating, Morningglory [8, 20]: 0
Plant response rating, Morningglory [8, 21]: 0
Plant response rating, Morningglory [8, 22]: 45
Plant response rating, Soybean [9, 15]: 80
Soybean plant response rating (0 to 100 scale) [9, 16]: 85
Plant response rating, Soybean [9, 18]: 90
Plant response rating, Soybean [9, 19]: 95
Plant response rating, Oat, Wild [10, 15]: 55
Oat, Wild plant response rating (0 to 100 scale) [10, 16]: 80
Plant response rating, Oat, Wild [10, 18]: 80
Plant response rating, Oat, Wild [10, 19]: 95
Plant response rating, Oat, Wild [10, 20]: 0
Plant response rating, Oat, Wild [10, 21]: 0
Plant response rating, Oat, Wild [10, 22]: 0
Plant response rating, Canarygrass [11, 15]: 0
Canarygrass plant response rating (0 to 100 scale) [11, 16]: 0
Plant response rating, Canarygrass [11, 18]: 5
Plant response rating, Canarygrass [11, 19]: 40
Plant response rating, Chickweed [12, 15]: 80
Chickweed plant response rating (0 to 100 scale) [12, 16]: 80
Plant response rating, Chickweed [12, 18]: 95
Plant response rating, Chickweed [12, 19]: 100
Plant response rating, Windgrass [13, 15]: 70
Windgrass plant response rating (0 to 100 scale) [13, 16]: 80
Plant response rating, Windgrass [13, 18]: 90
Plant response rating, Windgrass [13, 19]: 98
Plant response rating, Barley [14, 15]: 0
Barley plant response rating (0 to 100 scale) [14, 16]: 0
Plant response rating, Barley [14, 18]: 0
Plant response rating, Barley [14, 19]: 10
